Assay results published in patent US12410160B2 (Gilead Sciences, Inc., priority 2021, dated 2025).
pEC50, pIC50: −log10 of the molar value. Where two headings read alike, the source gives them in different places.

Tests used:
human KHK-C = human KHK-C (Homo sapiens (Human), UniProt P50053); assay: KHK Biochemical Assay (IC50), ADP-Glo, KHK-C; settings: average of at least two separate assays
Method in brief: (§1)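 Luminescent ADP-Glo read-out of ADP made by His-tagged KHK (BL21 (DE3) expression, Ni-NTA). Enzyme and compound sat together 30 min before ATP/fructose addition, then reacted 4 h at RT in Hepes pH 7.4 buffer with KCl, MgCl2, Triton-X. Quench 1 h, detection 1 h.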

human OATP1B1 = human OATP1B1 (Homo sapiens (Human), UniProt Q9Y6L6); assay: In Vitro Inhibition Assessment with Human OATP1B1 Transporter; format: in vitro ADME; settings: HEK293-OATP1B1 cells, probe substrate pravastatin
Description: In Vitro Inhibition Assessment with Human OATP1B1 and OATP1B3 Transporters Assay Protocol
The purpose of this assay was to assess the inhibition potential of test article (TA) toward human OATP1B1 and OATP1B3 transporters in vitro using cell lines transfected with the individual transporters. The assays used clinically relevant probe substrate pravastatin and a known positive control inhibitor rifampicin. HEK293 mock, HEK293-OATP1B1, and HEK293-OATP1B3 transfected cells were seeded onto CellCoat Poly-D-Lysine coated 96 well black cell culture plates with clear bottoms (Greiner bio-one, Cat. #655946) at a density of 70,000 cells/well and cultured to confluency overnight. Seeding media used was Dulbecco's Modification of Eagle's Medium (DMEM—with GlutaMAX high glucose; Gibco, Cat #: 10569-010) supplemented with 10% fetal bovine serum, 0.1 mM non-essential amino acids, 100 U/mL penicillin, and 100 μg/mL streptomycin. On assay day, media were removed from the assay plates and cells were washed with Hanks' Balanced Salt Solution (HBSS Buffer) (Corning, Cat. #21-023-CV). All TAs and reference inhibitor were serially diluted in DMSO to create spiking solutions at concentrations of 250-fold of final assay concentrations (final DMSO content 0.4%). Cells were preincubated with HBSS buffer containing test compounds for 15 minutes. After the removal of HBSS buffer, dose solution containing TA or reference inhibitor and probe substrate were added to the HEK293-OATP1B1, HEK-293-OATP1B3 and its associated mock cell plate, respectively. The co-incubation period of TAs with the corresponding probe substrate for all plates was 5 minutes. An aliquot of the dose solution was removed from the HEK293 mock cell plates and analysed for dose recovery. Cells were then washed three times with ice cold HBSS buffer and then immediately extracted with methanol:water (70:30 v:v) containing internal standard labetolol (30 nM). The supernatants were evaporated to dryness on injection plates and reconstituted in 80% water containing 20% acetonitrile and 0.1% formic acid for analysis by liquid chromatography with tandem mass spectrometry (LC-MS-MS).
Fractional transport activities were calculated from the equation: Activity %=(A−B)/(C−D)×100
• A: translocated amount of substrate in the presence of TA on transfected cells • B: translocated amount of substrate in the presence of TA on Mock cells • C: translocated amount of substrate in the presence of solvent on transfected cells • D: translocated amount of substrate in the presence of solvent on Mock cells
GraphPad Prism 7.0 (GraphPad Software Inc., San Diego, CA) was used for curve fitting and determination of reaction parameters. In uptake transporter inhibition assays, the IC50 (μM) was calculated, where applicable. IC50 was defined as the concentration of TA required to inhibit maximal activity by 50%.

[1] = molecular target: KHK-C expressed in NRK-52E cells (Homo sapiens (Human), UniProt P50053); assay: KHK-C Cell-based Assay (EC50), NRK CTG, fructose-mediated ATP-depletion
Description: Compounds were tested in a high-throughput 384-well assay format for their ability to attenuate fructose-mediated ATP-depletion in Normal Rat Kidney epithelial cells (NRK-52E) using the Cell-Titer Glo (CTG) assay, which measures cellular ATP levels based on luminescence signal by using the luciferase-luciferin system. Compounds were serially diluted (1:3) in DMSO.
The plates were incubated at 37° C., 5% CO2 for one day. Cells were then transduced on day 2 with 200 MOI of Adenovirus (VQAd KHKC C-(K)-DYK ViraQuest Inc.) using the same medium and method as day-1 to induce KHK-C expression in the cells. Cells were incubated at 37° C., 5% CO2 for one day. On day-3, the medium was changed to DMEM medium (Corning, Catalog #10-014-CM) with 0.5% FBS and Penicillin-Streptomycin after washing the cells twice with sterile PBS on the BioTEK EL406 washer and dispenser. Test compounds were then diluted 200-fold into the assay plates using the BioMek FX and were incubated for 1 hour at 37° C., 5% CO2. 25 mM (final concentration) of fructose was then dispensed into the plates using the BioTEK EL406 dispenser and the plates were incubated at 37° C., 5% CO2 for 48 hours before addition of CTG reagent and measurement of luminescence signal.

human KHK-A = human KHK-A (Homo sapiens (Human), UniProt P50053); assay: KHK Biochemical Assay (IC50), ADP-Glo, KHK-A; settings: average of at least two separate assays
Method in brief: as §1

HepG2 cells = assay: F1P Cell-Based Assay (EC50), 13C6-fructose-1-phosphate in HepG2 cells (cell culture medium or 50% human plasma); settings: Homo sapiens

Sequence of human KHK-C (P50053 whole entry): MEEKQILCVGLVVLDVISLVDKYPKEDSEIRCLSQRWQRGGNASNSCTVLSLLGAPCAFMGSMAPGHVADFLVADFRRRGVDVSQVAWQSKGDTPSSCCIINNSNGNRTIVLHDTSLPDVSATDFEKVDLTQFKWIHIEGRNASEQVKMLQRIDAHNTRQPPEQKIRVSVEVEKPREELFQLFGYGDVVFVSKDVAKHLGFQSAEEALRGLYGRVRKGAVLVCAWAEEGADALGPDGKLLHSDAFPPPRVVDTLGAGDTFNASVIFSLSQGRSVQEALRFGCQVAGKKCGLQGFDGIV
Sequence of KHK-C expressed in NRK-52E cells (P50053 whole entry): as above
Sequence of human OATP1B1 (Q9Y6L6 whole entry): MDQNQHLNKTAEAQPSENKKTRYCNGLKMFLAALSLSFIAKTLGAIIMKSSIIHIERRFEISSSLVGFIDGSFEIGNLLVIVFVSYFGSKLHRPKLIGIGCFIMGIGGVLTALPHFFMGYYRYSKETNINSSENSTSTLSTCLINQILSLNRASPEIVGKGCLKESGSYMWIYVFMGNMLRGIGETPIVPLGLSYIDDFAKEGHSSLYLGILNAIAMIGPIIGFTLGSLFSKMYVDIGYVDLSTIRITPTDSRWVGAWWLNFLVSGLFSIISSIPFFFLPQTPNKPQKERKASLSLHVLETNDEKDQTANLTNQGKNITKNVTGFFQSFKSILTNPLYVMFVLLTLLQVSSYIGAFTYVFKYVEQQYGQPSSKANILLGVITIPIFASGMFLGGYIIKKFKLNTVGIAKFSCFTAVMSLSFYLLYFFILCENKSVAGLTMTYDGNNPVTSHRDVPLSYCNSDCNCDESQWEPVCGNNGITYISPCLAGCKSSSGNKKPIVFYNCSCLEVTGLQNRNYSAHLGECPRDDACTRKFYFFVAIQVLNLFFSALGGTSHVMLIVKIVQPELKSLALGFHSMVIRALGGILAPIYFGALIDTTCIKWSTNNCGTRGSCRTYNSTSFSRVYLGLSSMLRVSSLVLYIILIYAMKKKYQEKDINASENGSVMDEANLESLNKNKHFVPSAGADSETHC
Sequence of human KHK-A (P50053 other isoform, or with tags, fused parts or gaps): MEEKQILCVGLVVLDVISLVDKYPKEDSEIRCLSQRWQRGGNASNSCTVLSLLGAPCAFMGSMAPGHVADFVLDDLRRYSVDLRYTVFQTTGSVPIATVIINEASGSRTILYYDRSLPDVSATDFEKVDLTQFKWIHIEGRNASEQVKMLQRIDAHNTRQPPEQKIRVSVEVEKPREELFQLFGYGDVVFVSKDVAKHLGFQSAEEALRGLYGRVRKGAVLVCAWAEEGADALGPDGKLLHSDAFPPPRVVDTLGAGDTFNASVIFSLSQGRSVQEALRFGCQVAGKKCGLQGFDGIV

Row | pIC50 (human KHK-C; ADP-Glo) | pIC50 (human OATP1B1) | pEC50 [1] | pIC50 (human KHK-A; ADP-Glo) | pIC50 (human KHK-C) | pIC50 (human KHK-A) | pEC50 (HepG2 cells; HepG2, HepG2 cells, 50% human plasma, read-out: F1P 50% HP EC50) | pEC50 (HepG2 cells; HepG2, read-out: F1P 10% FBS EC50, HepG2 cells, cell culture medium (10% FBS)) | SMILES | pEC50 (HepG2 cells; HepG2, read-out: F1P 10% FBS EC50) | pEC50 (HepG2 cells; HepG2, read-out: F1P 50% HP EC50)
1 | 7.34 | 6.03 | 6.51 | 7.38 |  |  |  |  | C[C@H]1CCN1c1nc2c(c(-c3cccc(CCC(=O)O)c3)n1)CCC2 [Example 4, (S)-3-(3-(2-(2-methylazetidin-1-yl)-6,7-dihydro-5H-cyclopenta[d]pyrimidin-4-yl)phenyl)propanoic acid] |  | 
2 | 7.16 | 6.35 | 6.21 | 7.31 |  |  |  |  | C[C@H]1CCN1c1nc2c(c(-c3cccc(C(=O)O)c3)n1)CCC2 [Example 9, (S)-3-(2-(2-methylazetidin-1-yl)-6,7-dihydro-5H-cyclopenta[d]pyrimidin-4-yl)benzoic acid] |  | 
3 | 8.00 | 5.13 | 7.43 | 7.59 |  |  |  |  | C[C@H]1[C@H](O)CN1c1nc2c(c(-c3ccc(C4(N)COC4)cc3)n1)CCC2 [Example 159, (2S,3R)-1-(4-(4-(3-aminooxetan-3-yl)phenyl)-6,7-dihydro-5H-cyclopenta[d]pyrimidin-2-yl)-2-methylazetidin-3-ol] |  | 
4 | 7.99 | 5.55 | 6.81 |  |  |  |  |  | C[C@H]1[C@H](O)CN1c1nc(-c2ccc(C(N)=O)c(OC(F)F)c2)c2c(n1)C(F)(F)CC2 [Example 182, 4-(7,7-difluoro-2-((2S,3R)-3-hydroxy-2-methylazetidin-1-yl)-6,7-dihydro-5H-cyclopenta[d]pyrimidin-4-yl)-2-(difluoromethoxy)benzamide] |  | 
5 |  | 5.86 | 7.50 |  |  |  |  |  | C[C@H]1[C@H](O)CN1c1nc(-c2ccc3c(c2)C(=O)N(C)C3)c2c(n1)C(F)(F)CC2 [Example 236, 6-(7,7-difluoro-2-((2S,3R)-3-hydroxy-2-methylazetidin-1-yl)-6,7-dihydro-5H-cyclopenta[d]pyrimidin-4-yl)-2-methylisoindolin-1-one] |  | 
6 | 7.32 | 5.90 | 7.08 | 7.24 |  |  |  |  | C[C@H]1[C@H](O)CN1c1nc2c(c(-c3cccc(CNS(C)(=O)=O)c3)n1)CCC2 [Example 285] |  | 
7 | 8.77 | 6.55 | 8.46 | 8.31 |  |  |  |  | C[C@H]1CCN1c1nc(-c2ccc3c(=O)[nH]ccc3c2)c2c(n1)C(F)(F)CC2 [Example 317, (S)-6-(7,7-difluoro-2-(2-methylazetidin-1-yl)-6,7-dihydro-5H-cyclopenta[d]pyrimidin-4-yl)isoquinolin-1(2H)-one] |  | 
8 | 8.13 | 4.88 | 7.12 | 8.29 |  |  |  |  | C[C@H]1[C@H](O)CN1c1nc(-c2cccc(S(N)(=O)=O)c2)c2c(n1)C(F)(F)CC2 [Example 322, 3-(7,7-difluoro-2-((2S,3R)-3-hydroxy-2-methylazetidin-1-yl)-6,7-dihydro-5H-cyclopenta[d]pyrimidin-4-yl)benzenesulfonamide] |  | 
9 | 7.69 | 6.42 | 7.27 | 7.27 |  |  |  |  | C[C@H]1[C@H](O)CN1c1nc2c(c(-c3ccc4c(=O)[nH]ccc4c3)n1)CCC2 [Example 373, 6-[2-[(2S,3R)-3-hydroxy-2-methyl-azetidin-1-yl]-6,7-dihydro-5H-cyclopenta[d]pyrimidin-4-yl]-2H-isoquinolin-1-one] |  | 
10 | 8.20 | 6.83 | 7.86 | 7.79 |  |  |  |  | C[C@H]1CCN1c1nc2c(c(-c3cc(F)c4c(=O)[nH]ccc4c3)n1)CCC2 [Example 382, 8-fluoro-6-[2-[(2S)-2-methylazetidin-1-yl]-6,7-dihydro-5H-cyclopenta[d]pyrimidin-4-yl]-2H-isoquinolin-1-one] |  | 
11 | 8.36 | 6.71 | 8.14 | 7.97 |  |  |  |  | C[C@H]1CCN1c1nc2c(c(-c3ccc4c(=O)[nH]cnc4c3)n1)CCC2 [Example 383, 7-[2-[(2S)-2-methylazetidin-1-yl]-6,7-dihydro-5H-cyclopenta[d]pyrimidin-4-yl]-3H-quinazolin-4-one] |  | 
12 |  | 6.68 | 7.40 |  | 7.52 | 7.75 |  |  | C[C@H]1CCN1c1nc2c(c(-c3ccc4c(=O)[nH]ncc4c3)n1)CCC2 [Example 427, 6-[2-[(2S)-2-methylazetidin-1-yl]-6,7-dihydro-5H-cyclopenta[d]pyrimidin-4-yl]-2H-phthalazin-1-one] |  | 
13 |  | 5.74 | 8.30 |  | 8.47 |  |  |  | C[C@H]1CCN1c1nc2c(c(-c3cc4c(N)nccc4s3)n1)CCC2 [Example 446, 2-[2-[(2S)-2-methylazetidin-1-yl]-6,7-dihydro-5H-cyclopenta[d]pyrimidin-4-yl]thieno[3,2-c]pyridin-4-amine] |  | 
14 |  | 6.00 | 6.53 |  | 8.03 |  |  |  | C[C@H]1[C@H](O)CN1c1nc2c(c(-c3cc4cc[nH]c(=O)c4s3)n1)CCC2 [Example 450, 2-[2-[(2S,3R)-3-hydroxy-2-methyl-azetidin-1-yl]-6,7-dihydro-5H-cyclopenta[d]pyrimidin-4-yl]-6H-thieno[2,3-c]pyridin-7-one] |  | 
15 |  | 5.01 |  |  | 8.80 | 7.85 | 7.14 | 7.92 | C[C@H]1[C@H](O)CN1c1nc(-c2ccc3c(c2)COC[C@@H]3NS(C)(=O)=O)c2c(n1)C(F)(F)CC2 [Example 487, N—((R)-7-(7,7-difluoro-2-((2S,3R)-3-hydroxy-2-methylazetidin-1-yl)-6,7-dihydro-5H-cyclopenta[d]pyrimidin-4-yl)isochroman-4-yl)methanesulfonamide] |  | 
16 |  | 5.50 | 7.80 |  | 8.62 |  |  |  | C[C@H]1[C@H](O)CN1c1nc(-c2ccc3c(c2)S(=O)(=O)NC3)c2c(n1)C(F)(F)CC2 [Example 598] |  | 
17 |  | 5.36 | 5.31 |  | 7.69 |  |  |  | C[C@H]1[C@H](O)CN1c1nc(-c2cnc3c(c2)OCCNC3=O)c2c(n1)C(F)(F)CC2 [Example 599] |  | 
18 |  | 6.10 | 7.15 |  | 8.59 |  |  |  | C[C@H]1[C@H](O)CN1c1nc(-c2cc3cc[nH]c(=O)c3s2)c2c(n1)C(F)(F)CC2 [Example 643, 2-[7,7-difluoro-2-[(2S,3R)-3-hydroxy-2-methyl-azetidin-1-yl]-5,6-dihydrocyclopenta[d]pyrimidin-4-yl]-6H-thieno[2,3-c]pyridin-7-one] |  | 
19 |  | 4.52 | 6.59 |  | 7.45 |  |  |  | C[C@H]1[C@H](O)CN1c1nc(-c2ccc(S(C)(=N)=O)cc2)c2c(n1)C(F)(F)CC2 (stereo partly drawn) [Example 715, (4-(7,7-difluoro-2-((2S,3R)-3-hydroxy-2-methylazetidin-1-yl)-6,7-dihydro-5H-cyclopenta[d]pyrimidin-4-yl)phenyl)(imino)(methyl)-λ^6-sulfanone] |  | 
20 |  | 5.54 | 7.28 |  | 8.19 |  |  |  | C[C@H]1[C@H](O)CN1c1nc(-c2ccc(C3(O)CS(=O)(=O)C3)cc2)c2c(n1)C(F)(F)CC2 [Example 735] |  | 
21 |  | 5.76 | 7.28 |  | 8.15 |  |  |  | C[C@H]1[C@H](O)CN1c1nc(-c2cc3c(c(C(N)=O)c2)CCO3)c2c(n1)C(F)(F)CC2 [Example 756, 6-[7,7-difluoro-2-[(2S,3R)-3-hydroxy-2-methyl-azetidin-1-yl]-5,6-dihydrocyclopenta[d]pyrimidin-4-yl]-2,3-dihydrobenzofuran-4-carboxamide] |  | 

Row | SMILES | pIC50 (human KHK-C; ADP-Glo) | pIC50 (human OATP1B1) | pEC50 [1] | pIC50 (human KHK-A; ADP-Glo) | pIC50 (human KHK-C) | pIC50 (human KHK-A) | pEC50 (HepG2 cells; HepG2, HepG2 cells, 50% human plasma, read-out: F1P 50% HP EC50) | pEC50 (HepG2 cells; HepG2, read-out: F1P 10% FBS EC50, HepG2 cells, cell culture medium (10% FBS)) | pEC50 (HepG2 cells; HepG2, read-out: F1P 10% FBS EC50) | pEC50 (HepG2 cells; HepG2, read-out: F1P 50% HP EC50)
22 | C[C@H]1[C@H](O)CN1c1nc(-c2ccc3c(c2)S(=N)(=O)CCNC3)c2c(n1)C(F)(F)CC2 (stereo partly shown) [Example 725] |  | < 4.40 |  |  | 9.05 | 8.66 |  |  | 7.42 | 7.63
